One series can be described thus: in vivo. The following applies: mouse, po. The method, then: Acute oral toxicity of the compounds of the present invention to mice was determined after the manner of Hollingworth, Fukuto, and Metcalf in J. Agr. […] A dose of 0.25 ml of each solution was administered to each of four female white Swiss mice using the "bolus" - tipped syringe. […] Final mortality determinations were made forty-eight hours after treatment.

The test system of series [1] is two-spotted spider mite. Briefly: whole plant or invertebrate. As to conditions: Tetranychus urticae, 48 h.
Series [2] relates to southern army worm. As to conditions: 2880 min.
The test system of another series is Culex fatigans. Kind of series: whole plant or invertebrate. As to conditions: Culex quinquefasciatus, 24 h, read-out: Mosquitoes LC50. The method, then:
The appropriate amount of stock solution was added with stirring to 100 ml of tap water and 20-25 fourth instar larvae of Culex fatigans were placed in the solution. After twenty-four hours, the counts were taken. Larvae not able to rise to the surface on touch were counted as dead. Each concentration was run in duplicate and each material was run on two or three different days. The average percent mortality was plotted against the logarithm of the concentration (in ppm) and the LC50 value determined by inspection.

The subject of series [3] is Mexican bean beetle. Kind of series: whole plant or invertebrate. The following applies: Epilachna varivestis, 48 h, read-out: % Kill, BB (systemic).
Series [4] concerns pea aphid. Briefly: whole plant or invertebrate. As to conditions: Acyrthosiphon pisum, 48 h, read-out: % Kill, PA (systemic).
In the next series the test system is houseflies. Briefly: whole plant or invertebrate. The following applies: Musca domestica, topical, 24 h, read-out: Houseflies LD50. The method, then: Toxicity of the compounds of the present invention to houseflies was tested using the technique described by March and Metcalf in Bull. Calif. State Dept. Agr. […] Adult female houseflies were treated with one drop of acetone solution, applied to the prothorax, using a syringe calibrated to deliver 1.00 ± 0.05 mm^3 drops. Twenty flies were treated at each dosage, each test compound was applied at 8 to 10 dosage levels. Each test was replicated three times. […] A one-inch square of cotton saturated with 40% sugar solution was provided for food in each carton. The cartons of flies were held in a constant temperature chamber at 60° F and 60% relative humidity for 24 hours before mortality counts were made. Flies totally unable to make crawling or walking movements were counted as dead. LD50 values were calculated in the conventional manner.

The subject of series [5] is plum curculio. Briefly: Initial contact activity, plum curculio. As to conditions: Conotrachelus nenuphar, 48 h, read-out: % Kill, PC (initial contact).
In series [6] the test system is Mexican bean beetle. Kind of series: Initial contact activity, Mexican bean beetle. As to conditions: Epilachna varivestis, 48 h, read-out: % Kill, BB (initial contact).
Series [7] concerns plum curculio. Briefly: Residual contact activity, plum curculio. As to conditions: Conotrachelus nenuphar, 48 h, read-out: % Kill, PC (residual contact).
Series [8] has as its system milkweed bug. Briefly: Initial contact activity, milkweed bug. As to conditions: Oncopeltus fasciatus, 48 h, read-out: % Kill, MWB (initial contact).
Series [9] deals with milkweed bug. Briefly: Residual contact activity, milkweed bug. As to conditions: Oncopeltus fasciatus, 48 h, read-out: % Kill, MWB (residual contact).
The test system of series [10] is pea aphid. Kind of series: Residual contact activity, pea aphid. The following applies: Acyrthosiphon pisum, 48 h, read-out: % Kill, PA (residual contact).
Series [11] has as its system southern army worm. Briefly: Initial contact activity, southern army worm. As to conditions: 1250 ppm, 48 h exposure.
Series [12] has as its system southern army worm. Kind of series: Residual contact activity, southern army worm. The following applies: 1250 ppm; 7 days; 2880 min.
The test system of series [13] is two-spotted spider mite. Briefly: Initial contact activity, two-spotted spider mite. The following applies: Tetranychus urticae, 48 h, read-out: % Kill, SM (initial contact).
The test system of series [14] is granary weevil. Kind of series: Residual contact activity, granary weevil. As to conditions: Sitophilus granarius, 48 h, read-out: % Kill, GW (residual contact).
Series [15] has as its system Mexican bean beetle. Kind of series: Residual contact activity, Mexican bean beetle. As to conditions: Epilachna varivestis, 48 h, read-out: % Kill, BB (residual contact).
The subject of series [16] is granary weevil. Briefly: Initial contact activity, granary weevil. The following applies: Sitophilus granarius, 48 h, read-out: % Kill, GW (initial contact).
The test system of series [17] is pea aphid. Kind of series: Initial contact activity, pea aphid. The following applies: Acyrthosiphon pisum, 48 h, read-out: % Kill, PA (initial contact).
Series [18] concerns two-spotted spider mite. Briefly: Residual contact activity, two-spotted spider mite. As to conditions: Tetranychus urticae, 48 h, read-out: % Kill, SM (residual contact).
Setting [19] is: 39 ppm soil watering, group printed before the slash (separate test vs carbofuran).
Where [20] appears, read: read-out: % Kill, SM (systemic).

Results on ten molecules are retold here after patent US3997549A, “N-arylsulfenylated derivatives of benzofuranyl methylcarbamates” (priority 1973, dated 1976).

Each structure is given as a SMILES string. Converted amounts (≈) assume the structure as drawn. Like-named read-outs stand apart in the source and are kept apart here.

In “in vivo”, `CNC(=O)Oc1cccc2c1OC(C)(C)C2` [Carbofuran, 2,3-dihydro-2,2-dimethyl-7-benzofuranyl methylcarbamate, reference compound] returned an LD50 at 48 h of 2 mg/kg. The mortality at 39 ppm was determined as 5% in the series on two-spotted spider mite [1] (read-out: % Kill, SM (systemic), 39 ppm soil watering, group printed before the slash (separate test vs carbofuran)); 3% with two-spotted spider mite [1] (read-out: % Kill, SM (systemic), 39 ppm soil watering, separate test vs carbofuran); 100% in the series on Mexican bean beetle [3]; 100% in the series on pea aphid [4]. The mortality at 156 ppm with two-spotted spider mite [1] (read-out: % Kill, SM (systemic), 156 ppm soil watering, group printed before the slash (separate test vs carbofuran)) came out at 43%; in the series with two-spotted spider mite [1] (read-out: % Kill, SM (systemic), 156 ppm soil watering, separate test vs carbofuran), 70%; with Mexican bean beetle [3], 100%; in the series on pea aphid [4] it was 100%. Also, the “% Kill, AW (systemic)” value is given as 50% with southern army worm [2] (setting [19]); 100% in the series on southern army worm [2] (39 ppm soil watering, separate test vs carbofuran); 100% in the series with southern army worm [2] (156 ppm soil watering). For the same molecule, the LC50 with Culex fatigans came to 52 ng/mL (≈ 0.235 µM).
In “in vivo”, `CN(Sc1ccccc1)C(=O)Oc1cccc2c1OC(C)(C)C2` [Example I, 2,3-Dihydro-2,2-dimethyl-7-benzofuranyl (methyl)(phenylthio)carbamate] yielded an LD50 at 48 h of 25 to 50 mg/kg. For the same molecule, in the series with houseflies, the LD50 was 9.3 mg/kg. Also, the LC50 in the series on Culex fatigans worked out at 4.5 ng/mL (≈ 0.0137 µM).
Turning to `CN(Sc1ccc(Cl)cc1)C(=O)Oc1cccc2c1OC(C)(C)C2` [Example V, 2,3-Dihydro-2,2-dimethyl-7-benzofuranyl (4-chlorophenylthio)(methyl)carbamate], the mortality at 1250 ppm in the series with plum curculio [5] came out at 100%; in the series with Mexican bean beetle [6], 100%; in the series with plum curculio [7] it was 95%; with milkweed bug [8], 100%; in the series with milkweed bug [9], 100%; in the series with pea aphid [10] it was 95%. In addition, the mortality at 1250 ppm was 100% in the series on two-spotted spider mite [13]; 100% in the series with granary weevil [14]; 100% in the series with Mexican bean beetle [15]; 100% in the series with granary weevil [16]; 100% in the series on pea aphid [17]; 5% in the series on two-spotted spider mite [18]. The LD50 at 48 h in “in vivo” came to 50 mg/kg. Further, in the series on southern army worm [11], the “% Kill, AW (initial contact)” value came to 100%. Moreover, the results for the mortality at 39 ppm in the series with two-spotted spider mite [1] (setting [20]), with Mexican bean beetle [3] and with pea aphid [4] were 29%, 95% and 100%, respectively. For the same molecule, the mortality at 156 ppm turned out to be 33% in the series with two-spotted spider mite [1] (setting [20]), 100% with Mexican bean beetle [3] and 100% in the series with pea aphid [4]. Further, the “% Kill, AW (residual contact)” value in the series on southern army worm [12] is recorded as 100%. In addition, the LD50 in the series on houseflies amounted to 12.5 mg/kg. Further, the “% Kill, AW (systemic)” value in the series on southern army worm [2] (setting [19]) is 50%; with southern army worm [2] (156 ppm soil watering), 80%. Moreover, the LC50 with Culex fatigans is 2 ng/mL (≈ 0.0055 µM).
As to `CN(Sc1nc2ccccc2s1)C(=O)Oc1cccc2c1OC(C)(C)C2` [Example VII, 2,3-Dihydro-2,2-dimethyl-7-benzofuranyl (2-benzothiazolylthio)(methyl)carbamate], the mortality at 1250 ppm in the series on plum curculio [5] was found to be 100%; in the series with Mexican bean beetle [6] it was 91%; with plum curculio [7] it was 55%; in the series with milkweed bug [8], 100%; in the series on milkweed bug [9] it was 100%; in the series on pea aphid [10], 0%. For the same molecule, the mortality at 1250 ppm with two-spotted spider mite [13] came out at 72%; with granary weevil [14], 100%; in the series on Mexican bean beetle [15], 100%; in the series with granary weevil [16], 100%; with pea aphid [17] it was 100%; in the series on two-spotted spider mite [18] it was 5%. In addition, the LD50 at 48 h in “in vivo” worked out at 50 mg/kg. The “% Kill, AW (initial contact)” value with southern army worm [11] came to 62%. In addition, the mortality at 39 ppm in the series on two-spotted spider mite [1] (setting [20]) was determined as 3%; in the series on Mexican bean beetle [3], 68%; with pea aphid [4], 100%. The mortality at 156 ppm in the series on two-spotted spider mite [1] (setting [20]) came out at 2%; in the series on Mexican bean beetle [3] it was 81%; with pea aphid [4], 100%. The “% Kill, AW (residual contact)” value with southern army worm [12] is recorded as 100%. Further, in the series with houseflies, the LD50 came out at 8.5 mg/kg. Moreover, the “% Kill, AW (systemic)” value came to 0% in the series on southern army worm [2] (setting [19]) and 60% with southern army worm [2] (156 ppm soil watering). Besides, the LC50 in the series on Culex fatigans was found to be 9.5 ng/mL (≈ 0.0246 µM).
The molecule `COc1ccc(SN(C)C(=O)Oc2cccc3c2OC(C)(C)C3)cc1` [IX, 2,3-Dihydro-2,2-dimethyl-7-benzofuranyl (4-methoxyphenylthio)(methyl)carbamate] had an LD50 at 48 h in “in vivo” of 25 to 50 mg/kg. Moreover, the LD50 with houseflies amounted to 7.8 mg/kg. The LC50 in the series with Culex fatigans came to 6 ng/mL (≈ 0.0167 µM).
The corresponding values for `CN(Sc1ccc(Br)cc1)C(=O)Oc1cccc2c1OC(C)(C)C2` [VIII, 2,3-Dihydro-2,2-dimethyl-7-benzofuranyl (4-bromophenylthio)(methyl)carbamate] are 50 to 75 mg/kg, 9 mg/kg and 4 ng/mL (≈ 0.0098 µM).
In turn, `CC(C)c1ccccc1SN(C)C(=O)Oc1cccc2c1OC(C)(C)C2` [XII, 2,3-Dihydro-2,2-dimethyl-7-benzofuranyl (2-isopropylphenylthio) (methyl)carbamate] came in with an LD50 at 48 h in the series “in vivo” of 50 to 75 mg/kg. Besides, the LD50 in the series on houseflies was 8.3 mg/kg. In addition, the LC50 with Culex fatigans was found to be 3 ng/mL (≈ 0.00808 µM).
On to `Cc1ccc(SN(C)C(=O)Oc2cccc3c2OC(C)(C)C3)c(C)c1` [XIII, 2,3-Dihydro-2,2-dimethyl-7-benzofuranyl (2,4-dimethylphenylthio)(methyl)carbamate], for which, in “in vivo”, the LD50 at 48 h fell in the range of 50 to 100 mg/kg. For the same molecule, the LD50 with houseflies was found to be 9 mg/kg. Further, in the series on Culex fatigans, the LC50 turned out to be 3 ng/mL (≈ 0.00839 µM).
Regarding `CN(Sc1ccc(C#N)cc1)C(=O)Oc1cccc2c1OC(C)(C)C2` [XV, 2,3-Dihydro-2,2-dimethyl-7-benzofuranyl (4-cyanophenylthio)(methyl)carbamate], the LD50 at 48 h in “in vivo” lay within 25 to 50 mg/kg. In addition, the LD50 in the series on houseflies was 22.5 mg/kg. In addition, the LC50 with Culex fatigans turned out to be 22 ng/mL (≈ 0.0621 µM).
In “in vivo”, `CN(Sc1ccc2ccccc2c1)C(=O)Oc1cccc2c1OC(C)(C)C2` [XVII, 2,3-Dihydro-2,2-dimethyl-7-benzofuranyl (methyl)(2-naphthylthio)carbamate] came in with an LD50 at 48 h of 40 mg/kg. For the same molecule, the LD50 with houseflies turned out to be 8 mg/kg. The LC50 with Culex fatigans was 3.2 ng/mL (≈ 0.00843 µM).

The term LD50 denotes the dose expected to kill half of the subjects tested. Broadly, the LC50 is the concentration that kills 50% of the test population.
